Source: patent publication US20210238192A1, “VASCULAR ADHESION PROTEIN-1 (VAP-1) MODULATORS AND THERAPEUTIC USES THEREOF” (Blade Therapeutics, Inc., priority 2018, published 2021)
Structures can show the parent of a compound that is named as a salt.

Experiments:
Assay type in all cases: biochemical
Human MAO-A = target: T1, Human MAO-A (Homo sapiens, UniProt P21397); assay: MAO-A inhibition (Amplex Red continuous fluorescence assay); conditions: 30 min pre-incubation at room temp; substrate tyramine; read-out: Human MAO-A IC50
T1 sequence (P21397 1-527): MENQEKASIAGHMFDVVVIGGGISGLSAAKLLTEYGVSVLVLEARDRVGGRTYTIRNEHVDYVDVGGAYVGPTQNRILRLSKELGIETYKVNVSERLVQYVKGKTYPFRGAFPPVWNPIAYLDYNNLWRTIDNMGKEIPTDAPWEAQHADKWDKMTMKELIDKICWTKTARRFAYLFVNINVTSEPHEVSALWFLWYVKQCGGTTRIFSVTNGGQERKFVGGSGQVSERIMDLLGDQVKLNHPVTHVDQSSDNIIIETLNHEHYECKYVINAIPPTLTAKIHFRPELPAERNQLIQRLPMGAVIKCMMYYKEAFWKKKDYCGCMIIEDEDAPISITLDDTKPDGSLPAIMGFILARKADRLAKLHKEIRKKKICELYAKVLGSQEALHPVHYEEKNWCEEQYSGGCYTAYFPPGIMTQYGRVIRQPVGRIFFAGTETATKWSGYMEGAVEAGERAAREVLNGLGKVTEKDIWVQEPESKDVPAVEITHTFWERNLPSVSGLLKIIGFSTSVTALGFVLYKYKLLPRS
Summary of the method: (§1)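 Continuous Amplex Red/HRP fluorescence read of H2O2 (ex/em 510/565 nm, 5 min). Substrates and buffers: VAP-1 benzylamine, […] sodium phosphate pH 7.4, 30 min 37° C preincubation; MAO-A tyramine and MAO-B benzylamine, same buffer, room temp; DAO histamine, 50 mM HEPES pH 7.5, room temp. IC50 from 4-parameter fit of rates.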

Human DAO = target: T2, Human DAO (Homo sapiens, UniProt P19801); assay: DAO inhibition (Amplex Red continuous fluorescence assay); conditions: 30 min pre-incubation at room temp; substrate histamine; read-out: Human DAO IC50
T2 sequence (P19801 20-751): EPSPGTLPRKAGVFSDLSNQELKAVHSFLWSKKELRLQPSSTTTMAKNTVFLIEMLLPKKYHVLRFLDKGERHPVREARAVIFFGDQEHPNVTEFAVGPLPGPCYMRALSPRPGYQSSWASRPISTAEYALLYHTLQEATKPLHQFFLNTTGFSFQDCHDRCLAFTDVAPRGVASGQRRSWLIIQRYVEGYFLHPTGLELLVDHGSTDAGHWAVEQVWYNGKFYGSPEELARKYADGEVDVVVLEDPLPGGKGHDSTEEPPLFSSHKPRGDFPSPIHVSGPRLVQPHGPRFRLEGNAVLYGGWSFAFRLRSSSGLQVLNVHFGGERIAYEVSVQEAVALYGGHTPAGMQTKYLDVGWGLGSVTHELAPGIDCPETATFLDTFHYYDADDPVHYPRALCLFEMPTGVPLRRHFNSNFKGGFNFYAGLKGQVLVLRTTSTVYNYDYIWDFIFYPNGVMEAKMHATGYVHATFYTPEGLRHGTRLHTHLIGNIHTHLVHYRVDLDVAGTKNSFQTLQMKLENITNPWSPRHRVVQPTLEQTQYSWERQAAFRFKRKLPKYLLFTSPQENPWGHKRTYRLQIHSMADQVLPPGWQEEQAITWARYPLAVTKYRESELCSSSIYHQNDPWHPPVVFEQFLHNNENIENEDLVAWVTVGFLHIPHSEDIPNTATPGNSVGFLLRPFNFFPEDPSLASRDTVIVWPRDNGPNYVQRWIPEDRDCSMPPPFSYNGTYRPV
Summary of the method: as §1

Human MAO-B = target: T3, Human MAO-B (Homo sapiens, UniProt P27338); assay: MAO-B inhibition (Amplex Red continuous fluorescence assay); conditions: 30 min pre-incubation at room temp; substrate benzylamine; read-out: Human MAO-B IC50
T3 sequence (P27338 1-520): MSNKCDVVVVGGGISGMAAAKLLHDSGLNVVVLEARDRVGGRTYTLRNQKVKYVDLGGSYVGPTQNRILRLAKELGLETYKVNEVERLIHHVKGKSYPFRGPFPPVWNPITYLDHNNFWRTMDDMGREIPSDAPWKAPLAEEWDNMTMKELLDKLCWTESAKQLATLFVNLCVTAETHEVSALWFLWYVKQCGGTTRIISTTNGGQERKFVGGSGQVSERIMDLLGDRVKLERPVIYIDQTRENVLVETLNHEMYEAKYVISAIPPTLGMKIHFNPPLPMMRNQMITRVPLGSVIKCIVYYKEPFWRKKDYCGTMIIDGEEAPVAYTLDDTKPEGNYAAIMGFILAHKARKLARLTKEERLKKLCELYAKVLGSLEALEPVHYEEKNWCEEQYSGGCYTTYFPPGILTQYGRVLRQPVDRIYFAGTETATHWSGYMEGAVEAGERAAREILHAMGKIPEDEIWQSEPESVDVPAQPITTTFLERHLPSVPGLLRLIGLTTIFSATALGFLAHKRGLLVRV
Summary of the method: as §1

Human VAP-1 = target: T4, Human VAP-1 (Homo sapiens, UniProt Q16853); assay: VAP-1 inhibition assay (Amplex Red continuous fluorescence assay); conditions: 30 min pre-incubation at 37° C.; substrate benzylamine; read-out: Human VAP-1 IC50
T4 sequence (Q16853 1-763): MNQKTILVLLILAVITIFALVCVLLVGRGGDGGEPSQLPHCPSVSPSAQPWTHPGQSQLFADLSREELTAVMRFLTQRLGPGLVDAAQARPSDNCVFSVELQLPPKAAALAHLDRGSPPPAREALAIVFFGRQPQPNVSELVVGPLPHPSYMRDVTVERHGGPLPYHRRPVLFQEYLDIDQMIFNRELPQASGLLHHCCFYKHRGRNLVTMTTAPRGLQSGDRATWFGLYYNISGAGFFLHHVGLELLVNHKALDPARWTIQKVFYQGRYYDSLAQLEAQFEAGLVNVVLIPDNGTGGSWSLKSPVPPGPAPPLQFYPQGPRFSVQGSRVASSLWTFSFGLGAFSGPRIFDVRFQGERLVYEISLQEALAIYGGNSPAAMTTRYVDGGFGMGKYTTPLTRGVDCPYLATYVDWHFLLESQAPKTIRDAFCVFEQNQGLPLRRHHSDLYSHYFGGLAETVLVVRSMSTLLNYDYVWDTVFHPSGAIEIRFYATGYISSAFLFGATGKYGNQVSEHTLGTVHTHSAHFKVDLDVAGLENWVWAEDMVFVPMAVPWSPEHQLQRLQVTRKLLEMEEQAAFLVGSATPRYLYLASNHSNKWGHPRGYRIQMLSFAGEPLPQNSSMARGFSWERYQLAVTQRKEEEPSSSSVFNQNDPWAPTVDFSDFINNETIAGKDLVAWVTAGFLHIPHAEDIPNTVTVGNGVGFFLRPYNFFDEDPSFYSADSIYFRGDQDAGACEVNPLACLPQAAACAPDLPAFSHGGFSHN
Summary of the method: as §1

| IC50 (Human MAO-A) | IC50 (Human DAO) | IC50 (Human MAO-B) | IC50 (Human VAP-1) | Compound |
| --- | --- | --- | --- | --- |
| 3 to 10 µM | < 3 µM | < 3 µM | < 3 µM | NC/C(=C/F)COc1ccc(-c2ncco2)cc1 [Compound 53, (Z)-3-fluoro-2-((4-(oxazol-2-yl)phenoxy)methyl)prop-2-en-1-amine hydrochloride] |
| 3 to 10 µM | < 3 µM | < 3 µM | < 3 µM | Cn1ccc(-c2ccc(OC/C(=C\F)CN)cc2)n1 [Compound 54, (Z)-3-fluoro-2-((4-(1-methyl-1H-pyrazol-3-yl)phenoxy)methyl)prop-2-en-1-amine hydrochloride] |
| < 3 µM | < 3 µM | 3 to 10 µM | < 3 µM | NC/C(=C\F)Cn1ncc(-c2ccc(O)cc2)n1 [Compound 57, (E)-4-(2-(2-(aminomethyl)-3-fluoroalkyl)-2H-1,2,3-triazol-4-yl)phenol hydrochloride] |
| < 3 µM | < 3 µM | < 3 µM | < 3 µM | NC/C(=C/F)Cn1ncc(-c2ccc(O)cc2)n1 [Compound 58, (Z)-4-(2-(2-(aminomethyl)-3-fluoroalkyl)-2H-1,2,3-triazol-4-yl)phenol hydrochloride] |
| > 10 µM | > 10 µM | < 3 µM | < 3 µM | CC(C)(C)NC(=O)c1ccc2c(ccn2C/C(=C/F)CN)c1 [Compound 59, (E)-1-(2-(aminomethyl)-3-fluoroalkyl)-N-(tert-butyl)-1H-indole-5-carboxamide] |
| < 3 µM | < 3 µM | < 3 µM | < 3 µM | NCC(=CF)COc1ccc(-c2cnn[nH]2)cc1 [Compound 60] |
| > 10 µM | < 3 µM | > 10 µM | < 3 µM | NC/C(=C\F)COc1ccc(C2=NCCN2)cc1 [Compound 61, (E)-2-((4-(4,5-dihydro-1H-imidazol-2-yl)phenoxy)methyl)-3-fluoroprop-2-en-1-amine] |
| > 10 µM | < 3 µM | > 10 µM | < 3 µM | NC/C(=C\F)CN1CCc2ccccc21 [Compound 62, (E)-3-fluoro-2-(indolin-1-ylmethyl)prop-2-en-1-amine hydrochloride] |
| > 10 µM | < 3 µM | > 10 µM | < 3 µM | NC/C(=C/F)COc1ccc(-c2ncc[nH]2)cc1 [Compound 63, (Z)-2-((4-(1H-imidazol-2-yl)phenoxy)methyl)-3-fluoroprop-2-en-1-amine] |
| 3 to 10 µM | < 3 µM | < 3 µM | < 3 µM | NC/C(=C\F)COc1ccc(-c2ncn[nH]2)cc1 [Compound 64, (E)-2-((4-(1H-1,2,4-triazol-5-yl)phenoxy)methyl)-3-fluoroprop-2-en-1-amine] |
| 3 to 10 µM | < 3 µM | 3 to 10 µM | < 3 µM | NC/C(=C\F)COC(=O)Nc1ccccc1 [Compound 65, (E)-2-(aminomethyl)-3-fluoroalkyl phenylcarbamate] |
| > 10 µM | > 10 µM | > 10 µM | < 3 µM | CCNC(=O)N(C)c1ccc(NC/C(=C/F)CN)cc1 [Compound 66, (E)-1-(4-((2-(aminomethyl)-3-fluoroalkyl)amino)phenyl)-3-ethyl-1-methylurea] |
| > 10 µM | 3 to 10 µM | 3 to 10 µM | < 3 µM | CCNC(=O)N(C)c1ccc(NC/C(=C\F)CN)cc1 [Compound 67, (Z)-1-(4-((2-(aminomethyl)-3-fluoroalkyl)amino)phenyl)-3-ethyl-1-methylurea] |

| Compound | IC50 (Human MAO-A) | IC50 (Human DAO) | IC50 (Human MAO-B) | IC50 (Human VAP-1) |
| --- | --- | --- | --- | --- |
| CCNC(=O)Oc1ccc(OC/C(=C/F)CN)cc1 [Compound 55, (E)-4-((2-(aminomethyl)-3-fluoroalkyl)oxy)phenyl ethylcarbamate] | < 3 µM | > 10 µM | < 3 µM | < 3 µM |
| CCNC(=O)Oc1ccc(OC/C(=C\F)CN)cc1 [Compound 56, (Z)-4-((2-(aminomethyl)-3-fluoroalkyl)oxy)phenyl ethylcarbamate] | < 3 µM | < 3 µM | < 3 µM | < 3 µM |
